Values quoted from earlier work, collected in patent publication US20030232858A1, “Use of hydroxyeicosatetraenoic acid compounds to treat dry mouth” (priority 2002, published 2003).

Assays:
[1] = test system: leukotriene B4
[2] = test system: psoriatic skin lesions
[3] = test system: colitis

In the case of CCCCC[C@H](O)/C=C/C=C\C/C=C\C/C=C\CCCC(=O)O [15-HETE, 15-Hydroxyeicosatetraenoic acid], the “effects on leukotriene B4 production or its activity” value [1] is given as “inhibitory effects”, the effect on psoriasis ([2]; injected into psoriatic skin lesions) is given as “can improve psoriasis” and the “concentration required to cause a clinical effect” value ([2]; intralesional injection, 0.1 ml) is given as 10 µmol/L. The “amount required to cause a clinical effect” value ([2]; intralesional injection, 0.1 ml of 10 μmol/L) was 300 ng and the “anti-inflammatory properties in colitis” value [3] was “minor anti-inflammatory properties”.
